In PMC11369193, “Structural insights into human ABCD3-mediated peroxisomal acyl-CoA translocation” (Cell Discovery, 2024):
Each block holds one molecule with its values, some of them ahead of it.

Columns and labels:
chABCD3 [1] = system: T1, chABCD3; assay: ATPase activity, malachite green phosphate assay; assay type: biochemical, Homo sapiens; details: LMNG + CHS detergent; 20 mM Tris-HCl pH 7.5, 2 mM MgCl2, 37 °C; no acyl-CoA (basal)
T1 construct: gene ABCD3; C. elegans PMP2 residues 1-50 fused to human ABCD3 residues 51-659, N-terminal FLAG tag, HEK293F, homodimer; PMP2 segment invisible in structures; with Peroxisomal Membrane Protein related (Caenorhabditis elegans)

chABCD3 [2] = system: T1, chABCD3; assay: ATPase activity, malachite green phosphate assay; cryo-EM structure […] Å (GDN); assay type: biochemical, Homo sapiens; details: LMNG + CHS detergent; 20 mM Tris-HCl pH 7.5, 2 mM MgCl2, 37 °C; no acyl-CoA (basal); structure with 10 mM ATP/Mg2+
chABCD3 [3] = target: T1, chABCD3; assay: stimulation of ATPase activity, malachite green phosphate assay; cryo-EM structure […] Å (digitonin); assay type: biochemical, Homo sapiens; details: 2 mM ATP; LMNG + CHS; 20 mM Tris-HCl pH 7.5, 2 mM MgCl2, 37 °C; activation of ATPase; two sites per dimer
[4] = target: chimeric ABCD3 (chABCD3): N-terminal 50 residues of C. elegans PMP2 fused to the core domains of human ABCD3, wild type (Caenorhabditis elegans | human) (UniProt P28288); assay: cryo-EM structure; purified chABCD3 (~10 mg/mL) in digitonin with 0.5 mM phytanoyl-CoA; C2 symmetry; inward-facing conformation; 2.9 Å
[5] = substrate: Nc1ncnc2c1ncn2[C@@H]1O[C@H](COP(=O)(O)OP(=O)(O)OP(=O)(O)O)[C@@H](O)[C@H]1O; assay: ATPase activity, malachite green phosphate assay; assay type: biochemical, Homo sapiens; details: LMNG + CHS detergent, 20 mM Tris-HCl pH 7.5, 2 mM MgCl2, 37 °C, no acyl-CoA (basal)

Molecule: Nc1ncnc2c1ncn2[C@@H]1O[C@H](COP(=O)(O)OP(=O)(O)OP(=O)(O)O)[C@@H](O)[C@H]1O [ATP]
- Km (chABCD3 [1]): 160 µM
- Km (chABCD3 [2]): 190 µM

B1: hABCD3 (Homo sapiens) (protein)
chain: MAAFSKYLTARNSSLAGAAFLLLCLLHKRRRALGLHGKKSGKPPLQNNEKEGKKERAVVDKVFFSRLIQILKIMVPRTFCKETGYLVLIAVMLVSRTYCDVWMIQNGTLIESGIIGRSRKDFKRYLLNFIAAMPLISLVNNFLKYGLNELKLCFRVRLTKYLYEEYLQAFTYYKMGNLDNRIANPDQLLTQDVEKFCNSVVDLYSNLSKPFLDIVLYIFKLTSAIGAQGPASMMAYLVVSGLFLTRLRRPIGKMTITEQKYEGEYRYVNSRLITNSEEIAFYNGNKREKQTVHSVFRKLVEHLHNFILFRFSMGFIDSIIAKYLATVVGYLVVSRPFLDLSHPRHLKSTHSELLEDYYQSGRMLLRMSQALGRIVLAGREMTRLAGFTARITELMQVLKDLNHGKYERTMVSQQEKGIEGVQVIPLIPGAGEIIIADNIIKFDHVPLATPNGDVLIRDLNFEVRSGANVLICGPNGCGKSSLFRVLGELWPLFGGRLTKPERGKLFYVPQRPYMTLGTLRDQVIYPDGREDQKRKGISDLVLKEYLDNVQLGHILEREGGWDSVQDWMDVLSGGEKQRMAMARLFYHKPQFAILDECTSAVSVDVEGYIYSHCRKVGITLFTVSHRKSLWKHHEYYLHMDGRGNYEFKQITEDTVEFGS
notes: full-length (659 residues), codon-optimized, N-terminal FLAG tag, expressed in HEK293F; LMNG + CHS detergent
- Km [5]: 0.24 mM

The remaining lines, values ahead:

- EC50 (chABCD3 [3]): ~460 nM
Molecule: CC(C)CCCC(C)CCCC(C)CCCC(C)CC(=O)SCCNC(=O)CCNC(=O)[C@H](O)C(C)(C)COP(=O)(O)OP(=O)(O)OC[C@H]1O[C@@H](n2cnc3c(N)ncnc32)[C@H](O)[C@@H]1OP(=O)(O)O (some centres unmarked) [phytanoyl-CoA]

- stoichiometry N [4]: 2
Molecule: chimeric ABCD3 (chABCD3): N-terminal 50 residues of C. elegans PMP2 fused to the core domains of human ABCD3, wild type (from UniProt P28288 51-659)
